Source: patent US20220257595A1, “MACITENTAN FOR USE IN TREATING PORTOPULMONARY HYPERTENSION” (ACTELION PHARMACEUTICALS LTD, priority 2019, published 2022)
“Also recorded” adds a separate entry of the source.

Legend:
[1] = prior nonclinical and clinical studies; cited from earlier work
patients with PoPH [2] = test: Post-hoc: liver transplant perioperative risk classification (mPAP categories); assay type: in vivo, human; conditions: for LT perioperative risk classification: Week 12 High risk (mPAP => 45 mm Hg): 10 mg, N = 43
Procedure: Post-Hoc, Exploratory Criteria: • Proportion of patients with NT-proBNP decrease from above 300 ng/L to below this threshold • Odds ratio for improvement to a more favorable liver transplant perioperative risk category • Odds ratio for becoming eligible for the MELD exception • Odds ratio for improvement to a more favorable waitlist mortality risk category
Risk categories related to liver transplant (transplant perioperative risk classification, MELD exception eligibility and waitlist mortality risk) were analyzed descriptively by treatment group using shift tables from baseline to Week 12 with categories as defined in Example 1.
LT perioperative risk classification, MELD exception eligibility, and waitlist mortality analyses were performed after the database lock and SDTMs delivery for the Double-Blind period. Number (%) of patients in following categories were summarized and presented in shift tables. The estimated odds ratio for risk improvement and corresponding 95% confidence intervals were obtained from an exact logistic regression (macitentan vs placebo) with factors for treatment and risk category at baseline.
The presence of moderate to severe pulmonary hypertension in patients with liver disease increases the risk of graft dysfunction and cardiopulmonary-related mortality after orthotopic liver transplant. According to the International Liver Transplant Society (ILTS) Practice Guidelines, liver transplant is conditional to appropriate hemodynamics due to the risk of cardiopulmonary-related mortality after liver transplant: • mPAP ≥45 mmHg is an absolute contraindication to liver transplant (high risk) as it is associated with 100% cardiopulmonary mortality • mPAP ≥35 mmHg and <45 mmHg, with increased PVR is associated with increased mortality (intermediate risk) of about 50%
mPAP <35 mmHg is associated with a low risk for liver transplant • LT perioperative risk classification

patients with PoPH [3] = test: PORTICO: right heart catheterization hemodynamics at rest (PVR, mRAP, mPAP, cardiac index, TPR, SVO2, PAWP/LVEDP); assay type: in vivo, human
Procedure: This study was designed as a randomized, double-blind (DB), placebo-controlled, prospective, multicenter, parallel group Phase 4 study assessing the efficacy and safety of macitentan in PoPH. The study design included an OL period following DB End of Treatment (EOT), the details of which are included below. The study design required approximately 84 adult patients with PoPH to be randomized (1:1) to receive either macitentan 10 mg, or matching placebo, once daily (o.d.) orally. Subject allocation to treatment groups was stratified by background PAH specific therapy receipt (yes/no). Stratification by region of enrollment was also performed as the number of enrolled patients per center was expected to be low, and variation in total patient numbers on a country-to-country level was expected. Based on an attrition rate of 10%, it was expected to have 76 evaluable patients at Week 12/End of Treatment (double-blind) (EOT-DB). Subjects were required to have a confirmed diagnosis of PoPH with a PVR of ≥4 Wood units (WU; ≥320 dyn·s·cm^−5) at enrollment but not have severe hepatic impairment (defined as Child-Pugh Class C or Model for End-Stage Liver Disease (MELD) score ≥19). Subjects were required to have 6-minute walk distance (6MWD) ≥50 m at enrollment but they could belong to any WHO FC. Patients were randomized at 36 sites in seven countries. The core study comprised the following periods:
The primary efficacy endpoint was: • Relative change from baseline to Week 12 in PVR, expressed as ratio of Week 12 to baseline PVR (Week 12 PVR divided by baseline PVR).
(i) Hemodynamic measurements—right heart catheterization: Invasive cardiac hemodynamic variables were measured according to the RHC guidelines at Baseline (Visit 1/Screening) and Week 12, or at permanent discontinuation of DB study treatment if prior to Week 12 (at the investigator's discretion). The thermodilution technique was used to measure cardiac output (CO). For each patient, a maximum of two RHC procedures were performed during the study. The following variables were measured: Heart rate (HR), PAWP or LVEDP (if PAWP is not available), mRAP, systolic/diastolic/mean pulmonary arterial pressure (PAP), CO, SVO2. PVR was calculated at Visit 1/Screening. The following hemodynamic variables were calculated for analysis purposes: PVR, TPR, cardiac index.
The primary efficacy endpoint is: • Relative change from baseline to Week 12 in PVR, expressed as ratio of Week 12 to baseline PVR (Week 12 PVR divided by baseline PVR). • Calculated PVR was used for the efficacy analyses.
The primary analysis was performed on the FAS and using calculated PVR. PVR was summarized by time point and treatment group using descriptive statistics. Ratio of Week 12 to baseline was summarized using geometric means and coefficients of variation (CVs). The ratio of Week 12 to baseline PVR was log-transformed (base e) and analyzed using ANCOVA with factors for treatment group (macitentan versus placebo), background PAH-specific therapy at baseline (Yes/No as per IXRS, randomization stratification factor), region (Europe/North America/Latin America as per IXRS, randomization stratification factor) and a covariate for baseline log-transformed PVR. The treatment group difference (on log scale) and its 95% confidence interval (2-sided) were estimated based on the model. The geometric mean ratio (macitentan versus placebo) and its 95% confidence interval (2-sided) were obtained by exponentiation. […] The log transformation for PVR is justified by the fact that ratios versus baseline follow a normal distribution more closely after a log transformation. In addition, mean absolute changes from baseline on log scale can be translated into (geometric) mean ratios by exponentiation.
A sensitivity analysis was performed applying main ANCOVA analysis without the stratification factors (background PAH-specific therapy at baseline and region). […]

[4] = 10 mg o.d. oral, DB period, FAS with imputation, n=43
[5] = 10 mg o.d., FAS with imputation, n=43
[6] = Week 12 vs baseline, macitentan group
[7] = change to Week 12, ANCOVA, FAS, listed as Macitentan
[8] = patients receiving macitentan, FAS no imputation

Structure (SMILES): CCCNS(=O)(=O)Nc1ncnc(OCCOc2ncc(Br)cn2)c1-c1ccc(Br)cc1 [macitentan, N-[5-(4-Bromophenyl)-6-[2-[(5-bromo-2-pyrimidinyl)oxy]ethoxy]-4-pyrimidinyl]-N′-propylsulfamide]
- Toxicities associated with macitentan treatment [1]: associated with teratogenicity, dose-related anemia/decrease in hemoglobin concentration, and hepatotoxicity
- LT perioperative risk classification: Week 12 High risk (mPAP => 45 mm Hg) (patients with PoPH [2]; Baseline Intermediate risk (n = 16)): 0 n (%)
- LT perioperative risk classification: Week 12 High risk (mPAP => 45 mm Hg) (patients with PoPH [2]; Baseline Low risk (n = 2)): 0 n (%)
- Odds to change to a more favorable LT perioperative risk category, macitentan vs placebo (patients with PoPH [2]; Week 12, exact logistic regression): 3.73 times
- Patients improving to a more favorable LT perioperative risk category (patients with PoPH [2]; after 12 weeks, FAS no imputation, 18 patients): 41.9%
- LT perioperative risk: Between-treatment odds ratio for improvement, OR (patients with PoPH [2]; macitentan vs placebo, exact logistic regression, 95% CI 1.175, 13.401, p-value 0.0224): 3.732
- PVR at Week 12, mean (patients with PoPH [3]; [4]): 350.3 dyn.sec/cm^5
- PVR at Week 12, median (patients with PoPH [3]; [4]): 328.6 dyn.sec/cm^5
- Mean (±SD) decrease in PVR from baseline to Week 12 (patients with PoPH [3]; 10 mg o.d., FAS): 202.1 (±123.56) dyn·sec/cm^5
- Change from baseline to Week 12 in PVR, mean (patients with PoPH [3]; [5]): −202.1 dyn.sec/cm^5
- Change from baseline to Week 12 in PVR, median (patients with PoPH [3]; [5]): −179.9 dyn.sec/cm^5
- Ratio of Week 12 to baseline PVR, geometric mean (95% CLs) (patients with PoPH [3]; [5]): 0.63 (0.58, 0.67)
- Ratio of baseline PVR at Week 12, median (patients with PoPH [3]; [5]): 0.60
- Ratio of Week 12 to baseline PVR, geometric mean (95% CLs) (patients with PoPH [3]; 10 mg o.d., FAS with imputation, n=43, listed as Macitentan): 0.63
- LS mean difference Macitentan 10 mg-Placebo, log(ratio of baseline PVR at Week 12) (patients with PoPH [3]; ANCOVA, FAS): −0.43
- LS mean of log(ratio of baseline PVR at Week 12) (patients with PoPH [3]; ANCOVA, FAS, macitentan group): −0.41
- Model-adjusted geometric mean of ratio of baseline PVR at Week 12 (patients with PoPH [3]; ANCOVA, FAS, macitentan group): 0.67
- SVO2 at Week 12, mean (patients with PoPH [3]; FAS with imputation, n=41): 70.3%
- SVO2 change from baseline to Week 12, mean (patients with PoPH [3]; FAS with imputation, n=41): 1.1%
- mRAP at Week 12, mean (patients with PoPH [3]; FAS with imputation, n=42): 9.0 mmHg
- mRAP change from baseline to Week 12, mean (patients with PoPH [3]; FAS with imputation, n=42): 1.6 mmHg
- Cardiac index at Week 12, mean (patients with PoPH [3]; FAS with imputation, n=43): 3.7 L/min/m^2
- Cardiac index change from baseline to Week 12, mean (patients with PoPH [3]; FAS with imputation, n=43): 0.6 L/min/m^2
- TPR at Week 12, mean (patients with PoPH [3]; FAS with imputation, n=43): 489.4 dyn · sec/cm^5
- TPR change from baseline to Week 12, mean (patients with PoPH [3]; FAS with imputation, n=43): −199.8 dyn · sec/cm^5
- mPAP Change from baseline to Week 12, Mean (patients with PoPH [3]; FAS with imputation, n=43): −6.4 mmHg
- mPAP at Week 12, mean (patients with PoPH [3]; FAS with imputation, n=43): 40.0 mmHg
- Effect on PVR across demographic and baseline disease subgroups (patients with PoPH [3]; FAS, subgroup analyses, Week 12): consistent with the overall treatment effect, with no indication of heterogeneity
- Geometric mean ratio of macitentan versus placebo (95% CLs), PVR, slope imputation (patients with PoPH [3]; Week 12, ANCOVA, FAS N=85): 0.65 (0.59, 0.72),
- Model-adjusted geometric mean ratio of PVR (macitentan over placebo), primary analysis (patients with PoPH [3]; Week 12, ANCOVA, FAS N=85): 0.65 (0.59, 0.72), p < 0.0001
- Difference in LS means macitentan-placebo, change from baseline in PVR (no log-transformation) (patients with PoPH [3]; Week 12, ANCOVA, FAS N=85 (Table 10)): −180.71 dyn.sec/cm^5
- Model-adjusted geometric mean ratio of PVR (macitentan over placebo), primary analysis (patients with PoPH [3]; Week 12, ANCOVA, FAS N=85, listed as Macitentan): 0.65
- Treatment effect: geometric mean ratio of PVR ratio (macitentan vs placebo) (patients with PoPH [3]; Week 12, FAS with imputation, descriptive (Table 8)): 0.64
- LS Mean difference (macitentan-placebo), ANCOVA (Absolute Change) of PVR (patients with PoPH [3]; Week 12, N=85 (Table 12)): −180.71 meters
- Reduction in PVR vs placebo (patients with PoPH [3]; Week 12, from adjusted geometric mean ratio): 35%
- Patients with an increase in PVR (patients with PoPH [3]; [6]): 1 patient
- Patients with no change in PVR (patients with PoPH [3]; [6]): 1 patient
- SVO2: difference in LS means macitentan-placebo (patients with PoPH [3]; change to Week 12, ANCOVA, FAS): No clinically significant effect; also recorded: No clinically relevant effect
- mRAP: difference in LS means macitentan-placebo (patients with PoPH [3]; change to Week 12, ANCOVA, FAS): No clinically significant effect; also recorded: No clinically relevant effect
- Cardiac index: difference in LS means macitentan-placebo (patients with PoPH [3]; [7]): 0.52 L/min/m^2
- SVO2: difference in LS means macitentan-placebo (patients with PoPH [3]; [7]): 0.03%
- TPR: difference in LS means macitentan-placebo (patients with PoPH [3]; [7]): −171.48 dyn · sec/cm^5
- mPAP: difference in LS means macitentan-placebo (patients with PoPH [3]; [7]): −5.99 mmHg
- mRAP: difference in LS means macitentan-placebo (patients with PoPH [3]; [7]): 1.67 mmHg
- PAWP/LVEDP treatment difference based on change from baseline to Week 12 (patients with PoPH [3]; macitentan vs placebo): 2.4 mmHg
- Mean PAWP/LVEDP (SD) at Week 12 (patients with PoPH [3]; [8]): 11.4 (4.2) mmHg
- PAWP/LVEDP mean (SD) change from baseline at Week 12 (patients with PoPH [3]; [8]): 2.1 (3.7) mmHg
